Experiments:
[1] = tested on: iPS cell-derived cardiomyocytes; test: Screening for cardiomyocyte proliferation agent based on cell cycle activation (Fucci green fluorescence and cell number); design: species or system human; details: compounds administered on day 22 after differentiation induction, evaluated on day 25; 384-well plate, 2500 cells per well
Description: The Fucci gene (Cell. 2008 Feb. 8; 132 (3): 487-98.) was constitutively expressed under the CAG promoter using the PiggyBac transposon vector system (System Biosciences) in a healthy human-derived iPS cell line.
The Fucci gene-introduced iPS cell line was induced to differentiate into cardiomyocytes by the embryoid body method described in Funakoshi, S. et al. Sci Rep 8, 19111 […], cardiomyocytes were extracted using a cell sorter on day 20 after induction, and then seeded into a 384-well plate at 2500 cells per well.
On day 22 after differentiation induction, about 4000 types of compounds were administered, and on day 25, the reactivity of the proliferative capacity of iPS cell-derived cardiomyocytes to the drugs was evaluated based on the intensity of Fucci's green fluorescence and the number of cells.
The Fucci reporter emits orange fluorescence in the G1/G0 phase and green fluorescence in the S/G2/M phase of the cell cycle. Since the cell cycle of undifferentiated human iPS cells is activated, most cells emit green fluorescence. However, when these iPS cells are differentiated into cardiomyocytes, the cell cycle usually stops and most cells turn red.

[2] = tested on: myocardial infarction model immunodeficient mouse (NRG mouse); test: Engraftment efficiency of transplanted cardiomyocytes by in vivo optical imaging (IVIS); details: cardiomyocytes treated with 1 μM for 48 hours from day 18, intramyocardial injection; compared to DMSO treatment group; FIG. 4
Method: Cardiomyocytes were induced to differentiate from iPS cells (Funakoshi, S. et al. Sci Rep 8, 19111 (2016)) derived from a healthy individual, which constantly express luciferase, by the method described in this document. The cardiomyocytes were treated with AM80 (1 μM) for 48 hours from day 18 after differentiation induction. Cardiomyocytes were extracted by flow cytometry, and then transplanted (1000,000 cells) into a myocardial infarction model immunodeficient mouse (NRG mouse with the left anterior descending coronary artery ligated) by intramyocardial injection.

[3] = tested on: human iPS cell-derived cardiomyocytes; test: EdU assay cell proliferation analysis; type: cell-based; details: 1 μM for 48 hours from day 18; compared to control group (DMSO-treated group); FIG. 3
Method: Further, human iPS cell-derived cardiomyocytes on day 18 after differentiation induction were treated with AM80 (1 μM) for 48 hours, and cell proliferation analysis was performed using EdU assay. […] For the EdU assay, Click-it EdU Pacific Blue flow cytometry assay kit, catalog number C10418 (Invitrogen) was used.

[4] = tested on: cardiomyocytes on day 18 of differentiation induction; test: Flow cytometry of Fucci green fluorescent cardiomyocytes after AM80 administration; type: cell-based, human; details: 1 μM, flow cytometry 48 hours later; vs Control (DMSO); FIG. 1 and FIG. 2
Method: 1 μM AM80 was administered to cardiomyocytes on day 18 of differentiation induction and then analysis was conducted by flow cytometry 48 hours later.

Compound	proliferation and cell division of iPS cell-derived cardiomyocytes (Fucci's green fluorescence intensity and number of cells) [1]	also measured
O=C1NC(=O)C(=Cc2ccc(-c3ccc(F)cc3)o2)S1 (stereo in doubt) [CAY10505]	promote the proliferation and cell division	
Cc1ccccc1C(C(=O)NC1CCCCC1)N(C(=O)Cn1ccnc1C)c1cccc(F)c1 (centres unmarked) [AGI5198, N-[2-(cyclohexylamino)-1-(2-methylphenyl)-2-oxoethyl]-N-(3-fluorophenyl)-2-methyl-1H-imidazole-1-acetamide]	promote the proliferation and cell division	
CC1(C)CCC(C)(C)c2cc(NC(=O)c3ccc(C(=O)O)cc3)ccc21 [AM80]	promote the proliferation and cell division	engraftment efficiency of transplanted cardiomyocytes [2]: significant improvement; cell proliferation activity (EdU assay) [3]: significant increase; green fluorescent cells (activation of cell cycle) [4]: significant increase
CC1(C)CCC(C)(C)c2cc(C(=O)Nc3ccc(C(=O)O)cc3)ccc21 [AM580]	promote the proliferation and cell division	
CC1=C(/C=C/C(C)=C/C=C/C(C)=C/C(=O)O)C(C)(C)CCC1 [All trans retinoic acid]	promote the proliferation and cell division	
O=C(O)c1ccc2cc(-c3ccc(O)c(C45CC6CC(CC(C6)C4)C5)c3)ccc2c1 [CD437]	promote the proliferation and cell division	
CC(C)(C)c1cc(C(=O)/C=C/c2ccc(C(=O)O)cc2)cc(C(C)(C)C)c1 [CH55]	promote the proliferation and cell division	
CC(C)(C)NS(=O)(=O)c1cncc(-c2cc(F)c3nc(N)nn3c2)c1 [CZC24832]	promote the proliferation and cell division	

— US20210363486A1, “CARDIOMYOCYTE PROLIFERATION PROMOTING AGENT AND USE THEREOF” (KYOTO UNIVERSITY, priority 2018, published 2021)
